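Five compound concentrations were applied to cells in 96-well plates for 48 hours; endpoints were derived by simple linear interpolation of the resulting dose-response curve. At the GI50, growth is halved.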 The source made the active and inactive calls. Rule as the data show it: active = GI50 up to about 1.1 µM and inactive = higher.
Assays:
Assay in all cases: DTP human tumour cell line panel, 48 h
786-0 = tested on: 786-0
A498 = tested on: A498
A549 = tested on: A549
ACHN = tested on: ACHN
BT-549 = tested on: BT-549
CAKI-1 = tested on: CAKI-1
CCRF-CEM = tested on: CCRF-CEM
COLO 205 = tested on: COLO 205
DU-145 = tested on: DU-145
EKVX = tested on: EKVX
HCC 2998 = tested on: HCC 2998
HCT-116 = tested on: HCT-116
HCT-15 = tested on: HCT-15
HL-60 = tested on: HL-60
HOP-62 = tested on: HOP-62
HOP-92 = tested on: HOP-92
HT-29 = tested on: HT-29
Hs-578T = tested on: Hs-578T
IGROV-1 = tested on: IGROV-1
K562 = tested on: K562
KM12 = tested on: KM12
LOX IMVI = tested on: LOX IMVI
M14 = tested on: M14
MCF7 = tested on: MCF7
MDA-MB-231 = tested on: MDA-MB-231
MDA-MB-435 = tested on: MDA-MB-435
MDA-N = tested on: MDA-N
MOLT-4 = tested on: MOLT-4
NCI-H460 = tested on: NCI-H460
NCI/ADR-RES = tested on: NCI/ADR-RES
OVCAR-3 = tested on: OVCAR-3
OVCAR-4 = tested on: OVCAR-4
OVCAR-5 = tested on: OVCAR-5
OVCAR-8 = tested on: OVCAR-8
PC-3 = tested on: PC-3
RPMI-8226 = tested on: RPMI-8226
SF-268 = tested on: SF-268
SF-295 = tested on: SF-295
SF-539 = tested on: SF-539
SK-MEL-28 = tested on: SK-MEL-28
SK-MEL-2 = tested on: SK-MEL-2
SK-MEL-5 = tested on: SK-MEL-5
SK-OV-3 = tested on: SK-OV-3
SN12C = tested on: SN12C
SNB-19 = tested on: SNB-19
SR = tested on: SR
SW-620 = tested on: SW-620
T47D = tested on: T47D
TK-10 = tested on: TK-10
U-251 = tested on: U-251
UACC-257 = tested on: UACC-257
UACC-62 = tested on: UACC-62
UO-31 = tested on: UO-31
NCI-H226 = tested on: NCI-H226
NCI-H23 = tested on: NCI-H23
NCI-H522 = tested on: NCI-H522
RXF 393 = tested on: RXF 393

Measured: GI50

COc1nc(-c2c[nH]c3ccccc23)cnc1N
inactive: 786-0 15.6 µM | A498 15.1 µM | A549 31.2 µM | ACHN 14.2 µM | BT-549 33.7 µM | CAKI-1 24.6 µM | COLO 205 29 µM | DU-145 23.4 µM | EKVX 6.35 µM | HCC 2998 67.9 µM | HCT-116 21.7 µM | HL-60 4.85 µM | HOP-62 48.9 µM | HT-29 19.3 µM | Hs-578T 17.7 µM | IGROV-1 19.6 µM | K562 33.6 µM | KM12 9.18 µM | LOX IMVI 25.3 µM | M14 30.1 µM | MCF7 2.85 µM | MDA-MB-231 18.1 µM | MDA-MB-435 23.4 µM | MDA-N 18.4 µM | MOLT-4 2.56 µM | NCI-H460 26.4 µM | NCI/ADR-RES 38.5 µM | OVCAR-3 39.6 µM | OVCAR-4 29.6 µM | OVCAR-5 14.4 µM | OVCAR-8 31.5 µM | PC-3 26.5 µM | SF-268 23.6 µM | SF-295 29.4 µM | SF-539 33.7 µM | SK-MEL-28 25.5 µM | SK-MEL-2 25 µM | SK-MEL-5 37.9 µM | SK-OV-3 30.9 µM | SN12C 5.87 µM | SNB-19 66.4 µM | SR 15 µM | SW-620 32.6 µM | T47D 1.56 µM | TK-10 > 100 µM | U-251 31 µM | UACC-257 22.4 µM | UACC-62 16.4 µM | UO-31 21.2 µM
22.8 µM: HCT-15
active: CCRF-CEM 0.809 µM | HOP-92 0.0306 µM | RPMI-8226 1.01 µM

N#Cc1ccc(-c2nc3c(N)ncnc3o2)cc1
> 100 µM: HCT-15
inactive: 786-0 63.8 µM | A498 > 100 µM | A549 > 100 µM | ACHN 75 µM | BT-549 > 100 µM | CAKI-1 > 100 µM | CCRF-CEM > 100 µM | COLO 205 > 100 µM | DU-145 > 100 µM | EKVX > 100 µM | HCC 2998 > 100 µM | HCT-116 > 100 µM | HL-60 > 100 µM | HOP-62 84.7 µM | HT-29 > 100 µM | Hs-578T > 100 µM | IGROV-1 > 100 µM | K562 > 100 µM | KM12 > 100 µM | LOX IMVI > 100 µM | M14 > 100 µM | MCF7 > 100 µM | MDA-MB-231 > 100 µM | MDA-MB-435 > 100 µM | MDA-N > 100 µM | MOLT-4 > 100 µM | NCI-H226 > 100 µM | NCI-H23 > 100 µM | NCI-H460 > 100 µM | NCI-H522 > 100 µM | NCI/ADR-RES > 100 µM | OVCAR-3 > 100 µM | OVCAR-5 > 100 µM | OVCAR-8 > 100 µM | PC-3 > 100 µM | RPMI-8226 > 100 µM | RXF 393 > 100 µM | SF-268 > 100 µM | SF-295 > 100 µM | SF-539 > 100 µM | SK-MEL-28 > 100 µM | SK-MEL-2 > 100 µM | SK-MEL-5 > 100 µM | SN12C > 100 µM | SNB-19 > 100 µM | SR > 100 µM | SW-620 > 100 µM | T47D > 100 µM | TK-10 > 100 µM | UACC-257 > 100 µM | UACC-62 > 100 µM | UO-31 > 100 µM

Source: ChEMBL document CHEMBL1201862, “PubChem BioAssay data set” (2004)
